Experimental data from ChEMBL document CHEMBL1201862, “PubChem BioAssay data set” (2004).
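In this assay, cells in 96-well plates receive the compound at five concentrations for 48 hours. Endpoints are linearly interpolated between the surrounding concentrations. GI50 = concentration required for 50% inhibition of growth.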 The source made the active and inactive calls. Cut-off read from the data, not from the text of the source: active = GI50 up to about 1.1 µM and inactive = higher.

Tests used:
Test in all cases: growth of human tumour cells (NCI), 48 h
[1] = test system: 786-0
[2] = test system: A498
[3] = test system: A549
[4] = test system: ACHN
[5] = test system: BT-549
[6] = test system: CAKI-1
[7] = test system: CCRF-CEM
[8] = test system: COLO 205
[9] = test system: DU-145
[10] = test system: EKVX
[11] = test system: HCC 2998
[12] = test system: HCT-116
[13] = test system: HCT-15
[14] = test system: HL-60
[15] = test system: HOP-62
[16] = test system: HOP-92
[17] = test system: HT-29
[18] = test system: Hs-578T
[19] = test system: IGROV-1
[20] = test system: K562
[21] = test system: KM12
[22] = test system: LOX IMVI
[23] = test system: M14
[24] = test system: MCF7
[25] = test system: MDA-MB-231
[26] = test system: MDA-MB-435
[27] = test system: MDA-N
[28] = test system: MOLT-4
[29] = test system: NCI-H226
[30] = test system: NCI-H23
[31] = test system: NCI-H460
[32] = test system: NCI-H522
[33] = test system: NCI/ADR-RES
[34] = test system: OVCAR-3
[35] = test system: OVCAR-4
[36] = test system: OVCAR-5
[37] = test system: OVCAR-8
[38] = test system: PC-3
[39] = test system: RPMI-8226
[40] = test system: RXF 393
[41] = test system: SF-268
[42] = test system: SF-295
[43] = test system: SF-539
[44] = test system: SK-MEL-28
[45] = test system: SK-MEL-2
[46] = test system: SK-MEL-5
[47] = test system: SK-OV-3
[48] = test system: SN12C
[49] = test system: SNB-19
[50] = test system: SNB-75
[51] = test system: SR
[52] = test system: SW-620
[53] = test system: T47D
[54] = test system: TK-10
[55] = test system: U-251
[56] = test system: UACC-257
[57] = test system: UACC-62
[58] = test system: UO-31
[59] = test system: Malme-3M

Compound: CCO/C=N/NC(=O)CSc1nc2ccc(I)cc2c(=O)n1Cc1ccccc1
- GI50 [1]: 56 µM (inactive)
- GI50 [2]: 84.5 µM (inactive)
- GI50 [3]: > 100 µM (inactive)
- GI50 [4]: > 100 µM (inactive)
- GI50 [5]: > 100 µM (inactive)
- GI50 [6]: > 100 µM (inactive)
- GI50 [7]: 23 µM (inactive)
- GI50 [8]: 57.4 µM (inactive)
- GI50 [9]: > 100 µM (inactive)
- GI50 [10]: 22.9 µM (inactive)
- GI50 [11]: 43.5 µM (inactive)
- GI50 [12]: 28.8 µM (inactive)
- GI50 [13]: > 100 µM
- GI50 [14]: > 100 µM (inactive)
- GI50 [15]: 37.4 µM (inactive)
- GI50 [16]: 83.6 µM (inactive)
- GI50 [17]: 40.2 µM (inactive)
- GI50 [18]: 34.6 µM (inactive)
- GI50 [19]: 39 µM (inactive)
- GI50 [20]: 11 µM (inactive)
- GI50 [21]: 46.9 µM (inactive)
- GI50 [22]: 63.8 µM (inactive)
- GI50 [23]: 70.3 µM (inactive)
- GI50 [24]: 33.6 µM (inactive)
- GI50 [25]: 38 µM (inactive)
- GI50 [26]: 38.7 µM (inactive)
- GI50 [27]: 37.8 µM (inactive)
- GI50 [28]: 28.5 µM (inactive)
- GI50 [29]: 64.4 µM (inactive)
- GI50 [30]: 36.9 µM (inactive)
- GI50 [31]: 28.8 µM (inactive)
- GI50 [32]: 3.04 µM (inactive)
- GI50 [33]: > 100 µM (inactive)
- GI50 [34]: 60 µM (inactive)
- GI50 [35]: > 100 µM (inactive)
- GI50 [36]: > 100 µM (inactive)
- GI50 [37]: 87.5 µM (inactive)
- GI50 [38]: 43.9 µM (inactive)
- GI50 [39]: 49.3 µM (inactive)
- GI50 [40]: 34.6 µM (inactive)
- GI50 [41]: 44.3 µM (inactive)
- GI50 [42]: 56.4 µM (inactive)
- GI50 [43]: 53.8 µM (inactive)
- GI50 [44]: > 100 µM (inactive)
- GI50 [45]: 21.7 µM (inactive)
- GI50 [46]: > 100 µM (inactive)
- GI50 [47]: > 100 µM (inactive)
- GI50 [48]: 84.5 µM (inactive)
- GI50 [49]: 44.2 µM (inactive)
- GI50 [50]: 40.5 µM (inactive)
- GI50 [51]: 33.7 µM (inactive)
- GI50 [52]: 46.2 µM (inactive)
- GI50 [53]: 44.9 µM (inactive)
- GI50 [54]: 34.7 µM (inactive)
- GI50 [55]: 35.9 µM (inactive)
- GI50 [56]: > 100 µM (inactive)
- GI50 [57]: 43.9 µM (inactive)
- GI50 [58]: > 100 µM (inactive)

Compound: O=C(CCl)Nc1cc(Cl)c(Cl)cc1Cl
- GI50 [1]: 1.51 µM (inactive)
- GI50 [2]: 5.15 µM (inactive)
- GI50 [3]: 2.35 µM (inactive)
- GI50 [4]: 2.22 µM (inactive)
- GI50 [5]: 1.77 µM (inactive)
- GI50 [6]: 2.96 µM (inactive)
- GI50 [7]: 0.966 µM (active)
- GI50 [8]: 1.85 µM (inactive)
- GI50 [9]: 3.16 µM (inactive)
- GI50 [10]: 2.54 µM (inactive)
- GI50 [11]: 4.84 µM (inactive)
- GI50 [12]: 1.59 µM (inactive)
- GI50 [13]: 2.09 µM
- GI50 [14]: 2.82 µM (inactive)
- GI50 [15]: 2.15 µM (inactive)
- GI50 [17]: 2 µM (inactive)
- GI50 [18]: 3.4 µM (inactive)
- GI50 [19]: 1.81 µM (inactive)
- GI50 [20]: 3.66 µM (inactive)
- GI50 [21]: 0.307 µM (active)
- GI50 [22]: 1.56 µM (inactive)
- GI50 [23]: 1.48 µM (inactive)
- GI50 [24]: 2.07 µM (inactive)
- GI50 [25]: 1.56 µM (inactive)
- GI50 [26]: 1.38 µM (inactive)
- GI50 [27]: 1.69 µM (inactive)
- GI50 [28]: > 10 µM (inactive)
- GI50 [59]: 1.41 µM (inactive)
- GI50 [29]: 1.01 µM (active)
- GI50 [30]: 1.7 µM (inactive)
- GI50 [31]: 1.73 µM (inactive)
- GI50 [32]: 0.505 µM (active)
- GI50 [33]: 2.05 µM (inactive)
- GI50 [34]: 1.76 µM (inactive)
- GI50 [35]: 2.27 µM (inactive)
- GI50 [36]: 2.12 µM (inactive)
- GI50 [37]: 1.73 µM (inactive)
- GI50 [38]: 1.76 µM (inactive)
- GI50 [39]: 4.74 µM (inactive)
- GI50 [40]: 2.65 µM (inactive)
- GI50 [41]: 2.3 µM (inactive)
- GI50 [42]: 5.26 µM (inactive)
- GI50 [43]: 1.67 µM (inactive)
- GI50 [44]: 2.32 µM (inactive)
- GI50 [45]: 1.64 µM (inactive)
- GI50 [46]: 1.78 µM (inactive)
- GI50 [47]: > 10 µM (inactive)
- GI50 [48]: 1.52 µM (inactive)
- GI50 [49]: 2.27 µM (inactive)
- GI50 [51]: 0.644 µM (active)
- GI50 [52]: 2.58 µM (inactive)
- GI50 [53]: 2.29 µM (inactive)
- GI50 [54]: 1.83 µM (inactive)
- GI50 [55]: 2.01 µM (inactive)
- GI50 [56]: 1.84 µM (inactive)
- GI50 [57]: 1.93 µM (inactive)

Compound: CC1C(OS(=O)(=O)c2ccc3nc(S)sc3c2)CC2C3(C)CCC2(C(C)C(=O)O)C(O)C13 (stereo not given)
- GI50 [1]: 20.2 µM (inactive)
- GI50 [2]: 54.7 µM (inactive)
- GI50 [3]: 21.7 µM (inactive)
- GI50 [4]: 15.9 µM (inactive)
- GI50 [5]: 24.9 µM (inactive)
- GI50 [6]: 22 µM (inactive)
- GI50 [7]: 3.85 µM (inactive)
- GI50 [8]: 20.7 µM (inactive)
- GI50 [9]: 15.7 µM (inactive)
- GI50 [10]: 31.3 µM (inactive)
- GI50 [11]: 35.6 µM (inactive)
- GI50 [12]: 13.6 µM (inactive)
- GI50 [13]: 12.5 µM
- GI50 [14]: 23.7 µM (inactive)
- GI50 [15]: 29.1 µM (inactive)
- GI50 [16]: 26.6 µM (inactive)
- GI50 [17]: 17.5 µM (inactive)
- GI50 [18]: 48.1 µM (inactive)
- GI50 [19]: 11.4 µM (inactive)
- GI50 [20]: 26.2 µM (inactive)
- GI50 [21]: 19.9 µM (inactive)
- GI50 [23]: 32.4 µM (inactive)
- GI50 [24]: 27.6 µM (inactive)
- GI50 [25]: 21.2 µM (inactive)
- GI50 [26]: 17.2 µM (inactive)
- GI50 [27]: 22.4 µM (inactive)
- GI50 [28]: 16.9 µM (inactive)
- GI50 [59]: 27.2 µM (inactive)
- GI50 [29]: 19.8 µM (inactive)
- GI50 [30]: 17.9 µM (inactive)
- GI50 [31]: 46.9 µM (inactive)
- GI50 [32]: 3.29 µM (inactive)
- GI50 [33]: 33 µM (inactive)
- GI50 [34]: 14.5 µM (inactive)
- GI50 [35]: 18.6 µM (inactive)
- GI50 [36]: 25.5 µM (inactive)
- GI50 [37]: 20.1 µM (inactive)
- GI50 [38]: 27.4 µM (inactive)
- GI50 [39]: 11.5 µM (inactive)
- GI50 [40]: 21.7 µM (inactive)
- GI50 [41]: 27.4 µM (inactive)
- GI50 [42]: 28 µM (inactive)
- GI50 [43]: 17.6 µM (inactive)
- GI50 [44]: 26.8 µM (inactive)
- GI50 [45]: 29.2 µM (inactive)
- GI50 [46]: 14.8 µM (inactive)
- GI50 [47]: 40.7 µM (inactive)
- GI50 [48]: 28 µM (inactive)
- GI50 [49]: 54.1 µM (inactive)
- GI50 [51]: 11.9 µM (inactive)
- GI50 [53]: 21.2 µM (inactive)
- GI50 [54]: 44.5 µM (inactive)
- GI50 [55]: 16.2 µM (inactive)
- GI50 [56]: 75.7 µM (inactive)
- GI50 [57]: 21.9 µM (inactive)
- GI50 [58]: 17.4 µM (inactive)
